Laboratory results reported in ChEMBL document CHEMBL1201862, “PubChem BioAssay data set” (2004).
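Exposure lasted 48 hours, with cells grown in 96-well plates and compounds tested at five concentrations. Abbreviation: GI50, concentration required for 50% inhibition of growth.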 Activity calls are given as the source filed them. No stated cut-off is given here; in the data, active = GI50 up to about 1.1 µM and inactive = higher.

Tests used:
Assay in all cases: NCI tumour cell line growth inhibition, 48 h
DU-145 = test system: DU-145
HL-60 = test system: HL-60
HOP-62 = test system: HOP-62
HOP-92 = test system: HOP-92
HT-29 = test system: HT-29
LOX IMVI = test system: LOX IMVI
MCF7 = test system: MCF7
MDA-MB-231 = test system: MDA-MB-231
MDA-N = test system: MDA-N
MOLT-4 = test system: MOLT-4
NCI-H23 = test system: NCI-H23
NCI-H460 = test system: NCI-H460
RPMI-8226 = test system: RPMI-8226
SK-OV-3 = test system: SK-OV-3
SNB-75 = test system: SNB-75
SR = test system: SR
UACC-257 = test system: UACC-257
UACC-62 = test system: UACC-62
BT-549 = test system: BT-549

Row | Compound | GI50 (DU-145) | GI50 (HL-60) | GI50 (HOP-62) | GI50 (HOP-92) | GI50 (HT-29) | GI50 (LOX IMVI) | GI50 (MCF7) | GI50 (MDA-MB-231) | GI50 (MDA-N) | GI50 (MOLT-4) | GI50 (NCI-H23) | GI50 (NCI-H460) | GI50 (RPMI-8226) | GI50 (SK-OV-3) | GI50 (SNB-75) | GI50 (SR) | GI50 (UACC-257) | GI50 (UACC-62) | GI50 (BT-549)
1 | Cc1ccccc1NC(=S)N/N=C1\C(=O)Nc2ccccc21 | 31.4 µM (inactive) | > 100 µM (inactive) | > 100 µM (inactive) | > 100 µM (inactive) | > 100 µM (inactive) | > 100 µM (inactive) | > 100 µM (inactive) | > 100 µM (inactive) | > 100 µM (inactive) | > 100 µM (inactive) | > 100 µM (inactive) | > 100 µM (inactive) | > 100 µM (inactive) | > 100 µM (inactive) | > 100 µM (inactive) | 70.6 µM (inactive) | > 100 µM (inactive) | > 100 µM (inactive) | –
2 | O=CC1=C(C(=O)OC(c2ccccc2)c2ccccc2)N2C(=O)[C@@H](NC(=O)Cc3cccs3)[C@H]2SC1 | > 100 µM (inactive) | 23.3 µM (inactive) | – | > 100 µM (inactive) | – | > 100 µM (inactive) | > 100 µM (inactive) | > 100 µM (inactive) | > 100 µM (inactive) | 53.6 µM (inactive) | 73.6 µM (inactive) | > 100 µM (inactive) | 79.4 µM (inactive) | > 100 µM (inactive) | > 100 µM (inactive) | 13.2 µM (inactive) | > 100 µM (inactive) | > 100 µM (inactive) | –
3 | O=C1c2cscc2C(=O)c2c(OCc3ccccc3)ccc(OCc3ccccc3)c21 | > 100 µM (inactive) | 96.4 µM (inactive) | > 100 µM (inactive) | > 100 µM (inactive) | 58.1 µM (inactive) | 97.9 µM (inactive) | > 100 µM (inactive) | > 100 µM (inactive) | > 100 µM (inactive) | > 100 µM (inactive) | > 100 µM (inactive) | > 100 µM (inactive) | > 100 µM (inactive) | > 100 µM (inactive) | 56 µM (inactive) | 54 µM (inactive) | > 100 µM (inactive) | > 100 µM (inactive) | –
4 | Nn1c(=O)n(Cc2ccccc2)n(-c2ccccc2)c1=O | – | > 100 µM (inactive) | > 100 µM (inactive) | > 100 µM (inactive) | > 100 µM (inactive) | > 100 µM (inactive) | – | – | – | > 100 µM (inactive) | > 100 µM (inactive) | > 100 µM (inactive) | > 100 µM (inactive) | > 100 µM (inactive) | 74.1 µM (inactive) | > 100 µM (inactive) | > 100 µM (inactive) | > 100 µM (inactive) | –
5 | CC1(C)[C@@H]2CC[C@@]1(C)[C@H](O)[C@@H]2SCc1ccccc1 | 19.9 µM (inactive) | 25.5 µM (inactive) | 17.9 µM (inactive) | 13.7 µM (inactive) | 14.7 µM (inactive) | 18.5 µM (inactive) | – | 16.8 µM (inactive) | 18.9 µM (inactive) | 16.5 µM (inactive) | 14.1 µM (inactive) | 19.2 µM (inactive) | 27.5 µM (inactive) | 20.5 µM (inactive) | 27.4 µM (inactive) | 28.8 µM (inactive) | 14 µM (inactive) | 10.2 µM (inactive) | –
6 | COc1cc(/C=N\O)nc(-c2ccccn2)c1 | 0.236 µM (active) | 0.124 µM (active) | 0.137 µM (active) | 1.44 µM (inactive) | 0.569 µM (active) | 0.221 µM (active) | 0.474 µM (active) | 1.05 µM (active) | – | 0.173 µM (active) | 0.51 µM (active) | 0.227 µM (active) | 0.337 µM (active) | 0.45 µM (active) | 1.28 µM (inactive) | 0.0438 µM (active) | 2.4 µM (inactive) | 0.448 µM (active) | 1.5 µM (inactive)
7 | O=C(/C=C/c1ccccc1)CCC1C(=O)NC(=S)NC1=O | > 100 µM (inactive) | – | – | > 100 µM (inactive) | – | > 100 µM (inactive) | – | > 100 µM (inactive) | – | > 100 µM (inactive) | > 100 µM (inactive) | > 100 µM (inactive) | – | > 100 µM (inactive) | – | – | > 100 µM (inactive) | > 100 µM (inactive) | > 100 µM (inactive)
8 | C1=C2/CC[C@H](Sc3ccccc3)[C@H]2C2(CCCCC/1)OCCO2 | – | 22.2 µM (inactive) | 40.4 µM (inactive) | 18.6 µM (inactive) | 34.6 µM (inactive) | 18.7 µM (inactive) | – | – | – | – | 34.8 µM (inactive) | 63.4 µM (inactive) | 24.4 µM (inactive) | 31 µM (inactive) | 27.9 µM (inactive) | 42.9 µM (inactive) | 20.2 µM (inactive) | 19.6 µM (inactive) | –
9 | N#CI1OC(C(F)(F)F)(C(F)(F)F)c2ccccc21 | 18.6 µM (inactive) | 5.77 µM (inactive) | 57.5 µM (inactive) | 16.3 µM (inactive) | 16.4 µM (inactive) | 18.8 µM (inactive) | 18.9 µM (inactive) | 24 µM (inactive) | – | – | 18.6 µM (inactive) | 24.8 µM (inactive) | 29.3 µM (inactive) | > 100 µM (inactive) | 13.9 µM (inactive) | – | 22.2 µM (inactive) | 18.4 µM (inactive) | 19.6 µM (inactive)
10 | COc1ccc2[nH]c3c([N+](=O)[O-])ccc(NCCCN(C)C)c3/c(=N/CCCN(C)C)c2c1 | 3.24 µM (inactive) | 1.77 µM (inactive) | 1.4 µM (inactive) | 3.33 µM (inactive) | 1.12 µM (inactive) | 1.41 µM (inactive) | 0.743 µM (active) | 1.5 µM (inactive) | – | 0.31 µM (active) | 1.56 µM (inactive) | – | 0.635 µM (active) | 2.01 µM (inactive) | 1.84 µM (inactive) | 0.28 µM (active) | > 10 µM (inactive) | > 10 µM (inactive) | –
11 | CC(=O)N1CC(C)(C)c2c(C)c(O)c(C)c(C)c21 | > 100 µM (inactive) | > 100 µM (inactive) | > 100 µM (inactive) | > 100 µM (inactive) | > 100 µM (inactive) | > 100 µM (inactive) | > 100 µM (inactive) | > 100 µM (inactive) | > 100 µM (inactive) | > 100 µM (inactive) | > 100 µM (inactive) | > 100 µM (inactive) | > 100 µM (inactive) | > 100 µM (inactive) | 54.5 µM (inactive) | – | > 100 µM (inactive) | > 100 µM (inactive) | –
12 | O=c1c2c([nH]c3cc4c(cc13)OCO4)-c1ccccc1C2 | – | 27.7 µM (inactive) | 23.4 µM (inactive) | 18.3 µM (inactive) | 17.7 µM (inactive) | 15.6 µM (inactive) | – | – | – | 24.7 µM (inactive) | 26.1 µM (inactive) | 22.3 µM (inactive) | 15 µM (inactive) | 31.3 µM (inactive) | – | 18.1 µM (inactive) | – | 17.1 µM (inactive) | –
13 | CSc1nc(-c2cc3c(c(SC)n2)CCCCC3)cc2c1CCCCC2 | > 100 µM (inactive) | > 100 µM (inactive) | 56.9 µM (inactive) | – | > 100 µM (inactive) | > 100 µM (inactive) | – | > 100 µM (inactive) | > 100 µM (inactive) | > 100 µM (inactive) | > 100 µM (inactive) | > 100 µM (inactive) | > 100 µM (inactive) | 50.1 µM (inactive) | 34.3 µM (inactive) | – | > 100 µM (inactive) | > 100 µM (inactive) | > 100 µM (inactive)
14 | Nn1c(Cc2ccc(Cl)cc2)n[nH]c1=O | > 100 µM (inactive) | > 100 µM (inactive) | 72.1 µM (inactive) | > 100 µM (inactive) | > 100 µM (inactive) | > 100 µM (inactive) | – | > 100 µM (inactive) | > 100 µM (inactive) | > 100 µM (inactive) | > 100 µM (inactive) | > 100 µM (inactive) | > 100 µM (inactive) | > 100 µM (inactive) | > 100 µM (inactive) | > 100 µM (inactive) | > 100 µM (inactive) | > 100 µM (inactive) | –
15 | COc1ccc(/C=N/Nc2nc3ccccc3c(=O)n2-c2ccccc2)cc1 | > 100 µM (inactive) | > 100 µM (inactive) | > 100 µM (inactive) | – | > 100 µM (inactive) | 95.1 µM (inactive) | 3.61 µM (inactive) | > 100 µM (inactive) | > 100 µM (inactive) | > 100 µM (inactive) | 55.6 µM (inactive) | 28.2 µM (inactive) | – | > 100 µM (inactive) | 86.5 µM (inactive) | 60.7 µM (inactive) | > 100 µM (inactive) | 24.4 µM (inactive) | –
16 | CC(CO)CCNc1ncnc2c1ncn2CCC(=O)O (stereo not drawn) | > 100 µM (inactive) | > 100 µM (inactive) | > 100 µM (inactive) | > 100 µM (inactive) | > 100 µM (inactive) | > 100 µM (inactive) | > 100 µM (inactive) | > 100 µM (inactive) | > 100 µM (inactive) | > 100 µM (inactive) | > 100 µM (inactive) | > 100 µM (inactive) | > 100 µM (inactive) | > 100 µM (inactive) | > 100 µM (inactive) | > 100 µM (inactive) | > 100 µM (inactive) | > 100 µM (inactive) | –
17 | O=C1CC(c2ccccc2Cl)Oc2ccccc21 (stereo not drawn) | 45 µM (inactive) | 32.4 µM (inactive) | 25.9 µM (inactive) | 25 µM (inactive) | 10.8 µM (inactive) | 40.4 µM (inactive) | 11.4 µM (inactive) | 26.9 µM (inactive) | – | – | – | 28.8 µM (inactive) | 17.5 µM (inactive) | > 100 µM (inactive) | 22.7 µM (inactive) | 23.2 µM (inactive) | > 100 µM (inactive) | 45.3 µM (inactive) | –
